Test results reported in patent US20110283604A1, “BIODEGRADATION OF RENEWABLE HYDROCARBON FUEL BLENDS” (BUTAMAX(TM) ADVANCED BIOFUELS LLC, priority 2010, published 2011).

Tests used:
[1] = system: soil-groundwater slurries; assay: Aerobic microcosm biodegradation of BTEX, isobutanol and ethanol
Description: Soil and groundwater for laboratory microcosm testing were collected from within Site 60 at Vandenberg Air Force Base, CA. The site has a history of gasoline contamination, but has undergone an extensive cleanup program. Collected groundwater was containerized in sterile stainless steel soda kegs (18.5 L) under nitrogen headspace. […] The core samples in acetate sleeves were capped and sealed in the field to minimize exposure to air, shipped overnight on ice to the laboratory, and stored at 4° C.
Soil was removed from the acetate sleeves in an anaerobic chamber (Coy Laboratory Products, Inc., Grass Lake, Mich.) and the first 10 cm of the core ends that may have been exposed to oxygen were discarded. Collected soil consisted of silty sand with some gravel and larger stones. The soil was passed through a 0.95 cm sieve, homogenized, and then stored in amber glass jars with Teflon®-lined caps at 4° C. until microcosm setup was complete. (NA=Not Analyzed; * SVOC (semi volatile organic compound) detections include 0.008 mg L^−1 phenol and 0.003 mg L^−1 bis(2-ethylhexyl) phthalate; ** standard units).
Final transformation products were not determined. For comparison, one treatment was prepared using ethanol instead of isobutanol. […] Controls were amended with mercuric chloride and formaldehyde. BTEX and alcohol concentrations were selected to represent (approximately) potential groundwater concentrations that would be observed within a source area and in the near downgradient plume. The greater ethanol concentrations relative to the isobutanol concentrations used in this study were intended to reflect effective solubilities of isobutanol and ethanol in groundwater. […] The SET 1 treatments were prepared within 4 days of sample collection whereas SET 2 treatments were prepared after approximately 2 months of soil and groundwater storage.
Microcosms were prepared by placing 40 g of site soil into each of 54 glass serum bottles (approximate volume 160 mL each). BTEX and alcohol (isobutanol or ethanol) were added to the treatment bottles to attain the target concentrations shown in Tables 2A and B. Bottles were filled with groundwater so as to leave 10 mL of headspace. Controls were amended with mercuric chloride (700 mg/L in bottles) to inhibit microbial activity. Controls were subsequently amended with formaldehyde (1% v/v in bottles) after 4 days to limit microbial activity. Treatments were prepared with a minimum of 3 and up to 8 replicates each.
The prepared microcosms were incubated at 15° C. on a rotary shaker operating at 100 rpm. Headspace in each of the bottles was monitored for BTEX and oxygen. Aqueous BTEX concentrations were calculated by applying Henry's Law. Samples of the aqueous phase were analyzed for isobutanol and ethanol, as well as potential isobutanol degradation products (iso-butylaldehyde and iso-butyric acid). The headspace of each bottle was periodically flushed with oxygen gas to maintain aerobic conditions in the bottles. The headspace of each control bottle also was flushed with oxygen to evaluate potential losses of BTEX due to the flushing process.
Headspace gases were analyzed for BTEX by using a Varian CP-3900 gas chromatograph equipped with an FID and a Restek QSPLOT column (30 m length, 0.32 mm diameter) with an injector temperature of 260° C. and a detector temperature of 290° C. Headspace oxygen was analyzed by using a Varian CP-3800 gas chromatograph equipped with a Pulsed Discharge Helium Ionization Detector (PDHID) and both a CP-Molsiene 5A column and a CP-ParaBond Q column (both 10 m length, 0.32 mm diameter), an injector temperature of 210° C., and a detector temperature of 240° C. […] Aqueous alcohol concentrations (as well as iso-butylaldehyde and iso-butyric acid) were measured by first collecting a 130 μL subsample preserved with mercuric chloride.

[2] = Water tolerance and phase separation tests on isobutanol-ethanol-gasoline blends; assay type: physicochemical; conditions: E10 gasoline
Description: Scoping water tolerance and phase separation tests were conducted on isobutanol-ethanol-gasoline blends at 65° F. […] Concentrations in both the hydrocarbon and aqueous phase were determined by GC.

[3] = Treatment 1 (Low BTEX), aerobic, 15° C.
[4] = Treatment 2 (High BTEX), aerobic
[5] = Treatment 3 (Low BTEX + IBA 68 μM), aerobic
[6] = Treatment 4 (High BTEX + IBA 3,400 μM), SET 1, aerobic
[7] = Treatment 5 (High BTEX + IBA 3,400 μM), SET 2, aerobic
[8] = Treatment 6 (High BTEX + Ethanol 11,000 μM), aerobic
[9] = higher concentration treatments, aerobic (isobutanol: data of Treatments 4 and 5; ethanol treatment)

Row | Compound | Lag [1, 3] | Lag [1, 4] | Lag [1, 5] | Lag [1, 6] | Lag [1, 7] | Lag [1, 8] | observed first-order biodegradation rate constant [1, 9] | rate constant in lower concentration treatment relative to isobutanol or ethanol in higher concentration treatments ([1]; Treatment 3 vs higher concentration treatments, aerobic) | observed first-order biodegradation rate constant ([1]; lower concentration treatment (Treatment 3), aerobic) | effect of increased levels on aqueous phase volume during phase separation ([2]; 1.3% and 2.6% water, FIG. 11) | effect on amount of ethanol extracted into the aqueous phase ([2]; FIG. 12)
1 | c1ccccc1 [Benzene, benzene] | 0 days | 6 days | 0 days | 1 days | 1 days | 1 days | – | – | – | – | –
2 | CCc1ccccc1 [Ethylbenzene, ethylbenzene] | 2 days | 5 days | 1 days | 0 days | 1 days | 1 days | – | – | – | – | –
3 | Cc1ccccc1 [Toluene, toluene] | 0 days | 5 days | 0 days | 5 days | 1 days | 1 days | – | – | – | – | –
4 | CCO [ethanol, reference compound] | – | – | – | – | – | – | 0.074 ± 0.0023 day⁻¹ | – | – | – | –
5 | CC(C)CO [isobutanol] | – | – | – | – | – | – | 0.081 ± 0.0044 day⁻¹ | approximately 3.5 times | 0.28 ± 0.054 day⁻¹ | reduced aqueous phase volume | acts as a co-solvent for ethanol
6 | total xylenes | 2 days | 0 days | 1 days | 0 days | 1 days | 1 days | – | – | – | – | –
